The test system of one assay is T. viride ATCC 13233. Briefly: Microdilution MIC/MMC. As to conditions: T. viride ATCC 13233, reference antibiotics/antimycotic; for MIC: Trichoderma viride, ATCC13233, read-out: MIC. The class given is cell-based, Trichoderma viride. The protocol: (§1) The antimicrobial activity was evaluated against 15 microorganisms. This included 11 bacterial strains: four standard strains (Staphylococcus aureus ATCC 25923, Bacillus subtilis ATCC 6633, Bacillus pumilus NCTC 8241, and Escherichia coli ATCC 25922) and six clinical or environmental isolates (Staphylococcus aureus, Escherichia coli, Bacillus cereus, Proteus mirabilis, Salmonella enterica, and Klebsiella pneumoniae). One probiotic strain, Bifidobacterium animalis subsp. lactis was tested. In addition, four fungal strains, Candida albicans ATCC 10231, Trichoderma viride ATCC 13233, Aspergillus flavus ATCC 9170, and Fusarium solani ATCC 11712 were tested. The bacterial strains were kept in glycerol stock at −80 °C and the fungal strains in paraffin oil stock at 4 °C.
(§2) Bacterial and yeast suspensions were prepared using the direct colony method, as previously described by Andrews. The turbidity of the initial suspensions was adjusted to match the 0.5 McFarland standard using a densitometer (Biosan, Riga, Latvia), corresponding to approximately 10^8 colony-forming units (CFU)/mL for bacterial cells and 10^6 CFU/mL for yeast cells. Subsequently, 1:100 dilutions of the initial suspensions were prepared in sterile 0.85% saline. Fungal spore suspensions were obtained by gently harvesting spores from agar slopes containing mature mycelial growth. The collected spore suspensions were then diluted 1:1000 in sterile 0.85% saline prior to use.
(§3) Antimicrobial activity was evaluated by determining the minimum inhibitory concentration (MIC) and minimum microbicidal concentration (MMC) using the microdilution plate method with resazurin as an indicator [28]. In the 96-well plates, 100 μL of Mueller–Hinton broth (Torlak, Belgrade, Serbia) for bacterial testing and Sabouraud broth (Torlak, Belgrade, Serbia) for fungal testing were dispensed into each well. The compounds under investigation were initially dissolved in a 10% dimethyl sulfoxide (DMSO) solution, followed by dilution in sterile distilled water, resulting in a working compound solution containing 1% DMSO. A 100 μL aliquot of the stock solution of the tested compound was added to the first row, and twofold serial dilutions were then carried out using a multichannel pipette. The resulting concentration range was from 5 to 0.039 mg/mL. The inoculated microtiter plates were incubated at 37 °C for 24 h for bacteria, at 28 °C for 48 h for yeasts, and at 28 °C for 72 h for molds.
(§4) Each test also included growth control and sterility control. All tests were conducted in duplicate. MIC was defined as the lowest concentration of tested compounds that prevented resazurin color change from blue to pink. For molds, MIC values of the tested compound were determined as the lowest concentration that inhibited visible mycelia growth. MMC was determined by inoculation of the nutrient agar medium by plating […] of samples from wells, where no indicator color change was recorded. At the end of the incubation period, the lowest concentration with no growth (no colony) was defined as MMC.
(§5) Doxycycline, ampicillin and amphotericin B (- Sigma-Aldrich, St. Louis, MO, USA) and ketoconazole (Hemofarm A.D., Vršac, Serbia) were dissolved in a nutrient liquid medium. Doxycycline is a broad-spectrum antibiotic effective against both aerobic and anaerobic Gram-positive and Gram-negative bacteria. Ampicillin, a beta-lactam antibiotic, primarily targets Gram-positive bacteria but also some Gram-negative strains. Amphotericin B is an antifungal drug often used for serious systemic fungal infections and is one of the effective treatments for fungal infections caused by Aspergillus sp. Ketoconazole is an antifungal agent used to inhibit the growth of Candida species.

In the next assay the test system is C. albicans ATCC 10231. Briefly: Microdilution MIC/MMC with resazurin. The assay is classed as cell-based, Candida albicans. As to conditions: C. albicans ATCC 10231, reference antibiotics/antimycotic; for MIC: Candida albicans, ATCC10231, read-out: MIC. The method, then: as §1, §2, §3, §4, §5
The subject of a further assay is A. flavus ATCC 9170. Briefly: Microdilution MIC/MMC. The class given is cell-based, Aspergillus flavus. As to conditions: A. flavus ATCC 9170, reference antibiotics/antimycotic; for MIC: Aspergillus flavus, ATCC9170, read-out: MIC. The method, then: as §1, §2, §3, §4, §5
The test system of another assay is F. solani ATCC 11712. Briefly: Microdilution MIC/MMC. The assay is classed as cell-based, Fusarium solani. As to conditions: F. solani ATCC 11712, reference antibiotics/antimycotic. The protocol: as §1, §2, §3, §4, §5
The next assay deals with S. aureus. Briefly: Microdilution MIC/MMC with resazurin. The assay is classed as cell-based, Staphylococcus aureus. As to conditions: S. aureus isolate, reference antibiotics/antimycotic; for MIC: Staphylococcus aureus, read-out: MIC. The protocol: as §1, §2, §3, §4, §5
The subject of the next assay is S. aureus ATCC 25923. Briefly: Microdilution MIC/MMC with resazurin. The class given is cell-based, Staphylococcus aureus. As to conditions: S. aureus ATCC 25923, reference antibiotics/antimycotic; for MIC: Staphylococcus aureus, ATCC25923, read-out: MIC. The protocol: as §1, §2, §3, §4, §5
The next assay deals with K. pneumoniae. Briefly: Microdilution MIC/MMC with resazurin. As to conditions: K. pneumoniae, reference antibiotics/antimycotic; for MIC: Klebsiella pneumoniae, read-out: MIC. The assay is classed as cell-based, Klebsiella pneumoniae. The protocol: as §1, §2, §3, §4, §5
The test system of the next assay is B. cereus. Briefly: Microdilution MIC/MMC with resazurin. The class given is cell-based, Bacillus cereus. As to conditions: B. cereus, reference antibiotics/antimycotic; for MIC: Bacillus cereus, read-out: MIC. The protocol: as §1, §2, §3, §4, §5
Another assay relates to B. subtilis ATCC 6633. Briefly: Microdilution MIC/MMC with resazurin. As to conditions: B. subtilis ATCC 6633, reference antibiotics/antimycotic; for MIC: Bacillus subtilis, ATCC6633, read-out: MIC. The class given is cell-based, Bacillus subtilis. The protocol:
as §1, §2, §3, §4, §5

The test system of assay [1] is B. animalis subsp. lactis. Briefly: Microdilution MIC/MMC with resazurin. The class given is cell-based, Bifidobacterium animalis subsp. lactis. As to conditions: B. animalis subsp. lactis, reference antibiotics/antimycotic; for MIC: Bifidobacterium animalis, read-out: MIC. The protocol: as §1, §2, §3, §4, §5
For a further assay, the system named is E. coli ATCC 25922. Briefly: Microdilution MIC/MMC with resazurin. The class given is cell-based, Escherichia coli. As to conditions: E. coli ATCC 25922, reference antibiotics/antimycotic; for MIC: Escherichia coli, ATCC25922, read-out: MIC. The method, then: as §1, §2, §3, §4, §5
The next assay deals with E. coli. Briefly: Microdilution MIC/MMC with resazurin. The assay is classed as cell-based, Escherichia coli. As to conditions: E. coli isolate, reference antibiotics/antimycotic; for MIC: Escherichia coli, read-out: MIC. The method, then:
as §1, §2, §3, §4, §5

The test system of a further assay is P. mirabilis. Briefly: Microdilution MIC/MMC with resazurin. As to conditions: P. mirabilis, reference antibiotics/antimycotic; for MIC: Proteus mirabilis, read-out: MIC. The assay is classed as cell-based, Proteus mirabilis. The method, then:
as §1, §2, §3, §4, §5

Another assay concerns S. enterica. Briefly: Microdilution MIC/MMC with resazurin. The assay is classed as cell-based, Salmonella enterica. As to conditions: reference antibiotics/antimycotic; for MIC: Salmonella enterica. The method, then: as §1, §2, §3, §4, §5
The subject of another assay is B. pumilus NCTC 8241. Briefly: Microdilution MIC/MMC with resazurin. As to conditions: B. pumilus NCTC 8241, reference antibiotics/antimycotic. The class given is cell-based, Bacillus pumilus. The method, then: as §1, §2, §3, §4, §5
Assay [2] can be described thus: ABTS radical scavenging assay. As to conditions: mean ± SD. The protocol:
The ABTS radical cation solution was prepared following the previously described protocol. Different concentrations of the analyzed samples were prepared in DMSO. The test samples were prepared following the specified procedure: 20 µL of sample was combined with 980 µL of methanol, followed by the addition of 1000 µL of ABTS solution. Absorbance was measured at 734 nm. All measurements were performed in triplicate.

Consider five molecules from article PMC12693701, “Glucosinolate-Derived Metabolites from Barbarea vulgaris (Brassicaceae): Evaluation of Antimicrobial, Antioxidant, and Anti-Inflammatory Potentials” (Molecules, 2025).

≈ marks a conversion by molar mass, not a printed value. Some results are limits rather than exact numbers.

Turning to `C[C@@H]1[C@H](O)[C@@H](C)/C=C/C=C/C=C/C=C/C=C/C=C/C=C/[C@H](O[C@@H]2O[C@H](C)[C@@H](O)[C@H](N)[C@@H]2O)C[C@@H]2O[C@](O)(C[C@@H](O)C[C@@H](O)[C@H](O)CC[C@@H](O)C[C@@H](O)CC(=O)O[C@H]1C)C[C@H](O)[C@H]2C(=O)O` [Amphotericin B, reference compound], the MMC is reported as 1.56 µg/mL in the assay on T. viride ATCC 13233, less than 0.098 µg/mL in the assay with C. albicans ATCC 10231 and 0.78 µg/mL in the assay on A. flavus ATCC 9170. Further, the MIC in the assay on T. viride ATCC 13233 was 0.78 µg/mL (≈ 0.844 µM); with C. albicans ATCC 10231, less than 0.098 µg/mL; in the assay with A. flavus ATCC 9170, 0.39 µg/mL (≈ 0.422 µM).

`CC(=O)N1CCN(c2ccc(OCC3COC(Cn4ccnc4)(c4ccc(Cl)cc4Cl)O3)cc2)CC1` (stereo not shown) [Ketoconazole, reference compound]: the MMC was 125 µg/mL in the assay on T. viride ATCC 13233, 0.156 µg/mL in the assay with F. solani ATCC 11712, 1.96 µg/mL in the assay with C. albicans ATCC 10231 and 1.96 µg/mL in the assay on A. flavus ATCC 9170. The MIC with T. viride ATCC 13233 was 62.5 µg/mL (≈ 118 µM); with F. solani ATCC 11712 (Fusarium solani, ATCC11712, read-out: MIC) it was 0.08 µg/mL (≈ 0.151 µM); in the assay on C. albicans ATCC 10231, 1.96 µg/mL (≈ 3.69 µM); with A. flavus ATCC 9170, less than 0.49 µg/mL.

Regarding `C[C@H]1c2cccc(O)c2C(=O)C2=C(O)[C@]3(O)C(=O)C(C(N)=O)=C(O)[C@@H](N(C)C)[C@@H]3[C@@H](O)[C@@H]21` [Doxycycline, reference compound], the MMC in the assay with S. aureus came out at 7.81 µg/mL; in the assay with S. aureus ATCC 25923, 3.75 µg/mL; in the assay with K. pneumoniae, 32 µg/mL; with B. cereus, 7.81 µg/mL; with B. subtilis ATCC 6633, 31.25 µg/mL; in assay [1] it was 8 µg/mL. Further, the MMC in the assay on E. coli ATCC 25922 was found to be 31.25 µg/mL; in the assay on E. coli it was 62.5 µg/mL; in the assay on P. mirabilis, 62.5 µg/mL. For the same molecule, the MIC in the assay on S. aureus was 0.45 µg/mL (≈ 1.01 µM); with S. aureus ATCC 25923 it was 0.224 µg/mL (≈ 0.504 µM); in the assay on K. pneumoniae, 2 µg/mL (≈ 4.5 µM); with B. cereus, 0.977 µg/mL (≈ 2.2 µM); in the assay with B. subtilis ATCC 6633, 1.95 µg/mL (≈ 4.39 µM); in assay [1], 4 µg/mL (≈ 9 µM). In addition, the minimum inhibitory concentration (MIC) with E. coli ATCC 25922, in the assay on E. coli, in the assay on P. mirabilis and against S. enterica was 15.6 µg/mL (≈ 35.2 µM) throughout.

As to `CC1(C)S[C@@H]2[C@H](NC(=O)[C@H](N)c3ccccc3)C(=O)N2[C@H]1C(=O)O` [Ampicillin, reference compound], the MMC in the assay with S. aureus is on record as less than 0.06 µg/mL; in the assay on S. aureus ATCC 25923, 0.75 µg/mL; in the assay with K. pneumoniae it was greater than 128 µg/mL; with B. cereus, 6 µg/mL; in the assay on B. subtilis ATCC 6633, 4 µg/mL; in assay [1], 0.12 µg/mL. Besides, the MMC in the assay with E. coli ATCC 25922 was 0.5 µg/mL; in the assay with E. coli it was 2.1 µg/mL; in the assay with B. pumilus NCTC 8241 it was 12 µg/mL; in the assay with P. mirabilis, greater than 128 µg/mL; in the assay on S. enterica, 1 µg/mL. For the same molecule, the MIC with S. aureus is less than 0.06 µg/mL; in the assay on S. aureus ATCC 25923, 0.25 µg/mL (≈ 0.715 µM); in the assay on K. pneumoniae, greater than 128 µg/mL; in the assay on B. cereus, 4 µg/mL (≈ 11.4 µM); with B. subtilis ATCC 6633, 3 µg/mL (≈ 8.59 µM); in [1] it was less than 0.06 µg/mL. Moreover, the MIC with E. coli ATCC 25922 is 0.37 µg/mL (≈ 1.06 µM); with E. coli, 1.2 µg/mL (≈ 3.43 µM); with B. pumilus NCTC 8241 (Bacillus pumilus, NCTC8241, read-out: MIC) it was 8 µg/mL (≈ 22.9 µM); with P. mirabilis, greater than 128 µg/mL; with S. enterica, 1 µg/mL (≈ 2.86 µM).

Take `Cc1c(C)c2c(c(C)c1O)CCC(C)(C(=O)O)O2` (stereo not shown) [Trolox, reference compound]: the “ABTS Scavenging Ability” value in assay [2] (25 µM) turned out to be 97.5 ± 0.2%; in assay [2] (50 µM), 99.3 ± 0.1%; in [2] (100 µM), 99.5 ± 0.3%.
